pIC50: −log10 of the molar value.
target: VEGFR-2 kinase (Homo sapiens (Human), UniProt P35968); experiment: Test of small molecule compounds for inhibiting the activity of VEGFR-2 kinase; format: biochemical; details: class symbols A-D
Description: Test of Small Molecule Compounds for Inhibiting the Activity of VEGFR-2 Kinase
The test was carried out as follows:
2. 2.5 μl of the gradient-diluted compounds was taken with a transfer pipette to a 384-well plate,
3. Addition of enzyme: 5 μl of 2×VEGFR-2 kinase was taken with a transfer pipette to the corresponding reaction well of the 384-well plate, which was mixed and pre-reacted at room temperature for 30 min,
5. Negative control: 2.5 μl/well 4× substrate/ATP Mix and 7.5 μl 1× Kinase Assay Buffer were added to the wells of the 384-well plate,
Positive control: 2.5 μl/well 4× substrate/ATP Mix, 2.5 μl/well 1× Kinase Assay Buffer containing 4% DMSO, and 5 μl/well 2×VEGFR-2 solution were added to the 384-well plate. The final concentration of DMSO in the reaction system is […],
6. The mixture was mixed well and then centrifuged and reacted at room temperature in dark for 60 min,
9. The 384-well plate was placed into the Envision plate reader and the signal was detected using the appropriate program,

VEGFR-2 kinase, sequence (P35968 20-1356): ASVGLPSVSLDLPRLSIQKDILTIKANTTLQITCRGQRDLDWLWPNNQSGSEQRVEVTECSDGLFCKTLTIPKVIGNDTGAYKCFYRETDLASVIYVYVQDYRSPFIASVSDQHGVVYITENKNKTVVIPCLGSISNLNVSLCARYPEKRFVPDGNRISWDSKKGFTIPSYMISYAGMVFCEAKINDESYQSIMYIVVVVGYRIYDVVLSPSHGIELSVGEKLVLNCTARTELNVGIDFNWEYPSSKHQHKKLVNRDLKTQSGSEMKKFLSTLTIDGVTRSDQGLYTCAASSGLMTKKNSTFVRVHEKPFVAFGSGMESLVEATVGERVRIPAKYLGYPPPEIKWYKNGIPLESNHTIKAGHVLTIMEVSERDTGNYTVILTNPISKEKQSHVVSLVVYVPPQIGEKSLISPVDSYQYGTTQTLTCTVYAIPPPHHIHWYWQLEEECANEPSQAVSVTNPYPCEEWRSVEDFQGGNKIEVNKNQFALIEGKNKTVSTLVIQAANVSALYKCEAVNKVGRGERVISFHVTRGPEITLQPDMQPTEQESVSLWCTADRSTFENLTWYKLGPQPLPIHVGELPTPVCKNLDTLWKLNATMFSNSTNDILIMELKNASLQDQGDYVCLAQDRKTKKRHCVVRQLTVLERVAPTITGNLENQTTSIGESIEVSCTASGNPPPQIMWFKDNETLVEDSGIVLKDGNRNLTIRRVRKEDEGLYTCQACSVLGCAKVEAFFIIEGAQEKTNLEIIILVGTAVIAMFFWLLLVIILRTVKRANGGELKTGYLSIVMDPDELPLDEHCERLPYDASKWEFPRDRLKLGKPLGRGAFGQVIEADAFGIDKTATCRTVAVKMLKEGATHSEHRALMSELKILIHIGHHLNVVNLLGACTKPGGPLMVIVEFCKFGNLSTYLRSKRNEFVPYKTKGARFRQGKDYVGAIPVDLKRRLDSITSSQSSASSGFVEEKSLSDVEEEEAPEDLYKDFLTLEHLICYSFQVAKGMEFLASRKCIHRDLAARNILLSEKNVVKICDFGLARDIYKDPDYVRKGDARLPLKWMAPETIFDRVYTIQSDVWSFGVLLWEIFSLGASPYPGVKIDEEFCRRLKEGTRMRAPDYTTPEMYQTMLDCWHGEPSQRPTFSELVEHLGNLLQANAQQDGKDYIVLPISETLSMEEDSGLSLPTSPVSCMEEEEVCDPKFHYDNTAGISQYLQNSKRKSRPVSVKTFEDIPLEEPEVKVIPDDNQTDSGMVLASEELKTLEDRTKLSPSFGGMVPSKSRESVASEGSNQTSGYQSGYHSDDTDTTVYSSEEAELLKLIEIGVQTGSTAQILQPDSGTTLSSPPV

| Structure (SMILES) | pIC50 |
| --- | --- |
| CN(C)CCCOc1cc2ncnc(Nc3ccc(NC(=O)NC4CC4)c(Cl)c3)c2c2c1OCCO2 [Example 82, 1-(2-chloro-4-((5-(3-(dimethylamino)propoxy)-2,3-dihydro-[1,4]dioxino[2,3-f]quinazolin-10-yl)amino)phenyl)-3-cyclopropylurea] | > 7.30 |
| CN1CCN(CCOc2cc3ncnc(Nc4ccc(NC(=O)NC5CC5)c(Cl)c4)c3c3c2OCCO3)CC1 [Example 83, 1-(2-chloro-4-((5-(2-(1-methylpiperazin-4-yl)ethoxy)-2,3-dihydro-[1,4]dioxino[2,3-f]quinazolin-10-yl)amino)phenyl)-3-cyclopropylurea] | 6.30 to 7.30 |
| COCCCCCCOc1cc2ncnc(Oc3ccc(NC(=O)NC4CC4)c(Cl)c3)c2c2c1OCCO2 [Example 88] | > 7.30 |
| COc1cc2nccc(Oc3ccc(NC(=O)Nc4ccc(Cl)c(C(F)(F)F)c4)cc3)c2c2c1OCCO2 [Example 90, 1-(4-chloro-3-(trifluoromethyl)phenyl)-3-(4-((5-methoxy-2,3-dihydro-[1,4]dioxino[2,3-f]quinolin-10-yl)oxy)phenyl)urea] | > 7.30 |
| COc1cc2nccc(Oc3ccc(NC(=O)Nc4ccc(Cl)c(C(F)(F)F)c4)cc3F)c2c2c1OCCO2 [Example 91, 1-(4-chloro-3-(trifluoromethyl)phenyl)-3-(3-fluoro-4-((5-methoxy-2,3-dihydro-[1,4]dioxino[2,3-f]quinoline-10-yl)oxy)phenyl)urea] | 6.30 to 7.30 |
| COc1cc2nccc(Oc3ccc(NC(=O)Nc4ccc(Cl)c(C(F)(F)F)c4)c(F)c3)c2c2c1OCCO2 [Example 92, 1-(4-chloro-3-(trifluoromethyl)phenyl)-3-(2-fluoro-4-((5-methoxy-2,3-dihydro-[1,4]dioxino[2,3-f]quinoline-10-yl)oxy)phenyl)urea] | 6.30 to 7.30 |

Further lines, results first:

| pIC50 | Structure (SMILES) |
| --- | --- |
| > 7.30 | O=C(Nc1ccc(Oc2ncnc3cc(OC4CCOC4)c4c(c23)OCCO4)cc1)Nc1cc(C(F)(F)F)ccc1F (stereo not shown) [Example 80, 1-(2-fluoro-5-(trifluoromethyl)phenyl)-3-(4-((5-((tetrahydrofuran-3-yl)oxy)-2,3-dihydro-[1,4]dioxino[2,3-f]quinazolin-10-yl)oxy)phenyl)urea] |
| > 7.30 | O=C(Nc1ccc(Oc2ncnc3cc(OCCCN4CCS(=O)(=O)CC4)c4c(c23)OCCO4)cc1)Nc1cc(C(F)(F)F)ccc1F [Example 81, 1-(4-((5-(3-(1,1-dioxidothiomorpholino)propoxy)-2,3-dihydro-[1,4]dioxino[2,3-f]quinazolin-10-yl)oxy)phenyl)-3-(2-fluoro-5-(trifluoromethyl)phenyl)urea] |
| > 7.30 | CSCCOc1cc2ncnc(Nc3ccc(NC(=O)NC4CC4)c(Cl)c3)c2c2c1OCCO2 [Example 84, 1-(2-chloro-4-((5-(2-methylthioethoxy)-2,3-dihydro-[1,4]dioxino[2,3-f]quinazolin-10-yl)amino)phenyl)-3-cyclopropylurea] |
| 5.30 to 6.30 | CSCCOc1cc2ncnc(Oc3ccc(NC(=O)NC4CC4)c(Cl)c3)c2c2c1OCCO2 [Example 85, 1-(2-chloro-4-(((5-(2-methylthio)ethoxy)-2,3-dihydro-[1,4]dioxino[2,3-f]quinazolin-10-yl)oxy)phenyl)-3-cyclopropylurea] |
| > 7.30 | COCCCOc1cc2ncnc(Oc3ccc(NC(=O)NC4CC4)c(Cl)c3)c2c2c1OCCO2 [Example 86, 1-(2-chloro-4-(((5-(3-methoxy)propoxy)-2,3-dihydro-[1,4]dioxino[2,3-f]quinazolin-10-yl)oxy)phenyl)-3-cyclopropylurea] |
| 6.30 to 7.30 | CN(C)CCOc1cc2ncnc(Nc3ccc(NC(=O)NC4CC4)c(Cl)c3)c2c2c1OCCO2 [Example 87] |
| > 7.30 | O=C(Nc1ccc(Oc2ncnc3cc(OCCCN4CCOCC4)c4c(c23)OCCO4)cc1)Nc1cc(Cl)ccc1F [Example 89, 1-(2-fluoro-5-chlorophenyl)-3-(4-((5-(3-morpholinopropoxy)-2,3-dihydro-[1,4]dioxino[2,3-f]quinazolin-10-yl)oxy)phenyl)urea] |
